# Results published in paper PMC12670405, “Second-Generation AURKA-Targeting PROTACs: Structural Optimization toward in Vivo Degradation in Neuroblastoma” (Journal of Medicinal Chemistry, 2025).
# Columns and labels:
# Test in all cases: KINOMEscan scanMAX
# Assay type in all cases: binding
# Settings in all cases: read-out: Percent Control
# NEK1 = target: T1, NEK1 (Homo sapiens, UniProt Q96PY6)
# T1 construct: purchased Eurofins Discovery (DiscoverX KINOMEscan scanMAX)
# Protocol: (§1) The kinome-wide binding assay was performed by Eurofins Discovery using the scanMAX screening platform. More information can be found on the Eurofins Discovery Web site.
# PKMYT1 = target: T2, PKMYT1 (Homo sapiens, UniProt Q99640)
# T2 construct: purchased Eurofins Discovery (DiscoverX KINOMEscan scanMAX)
# Protocol: as §1
# CSNK1E = target: T3, CSNK1E (Homo sapiens, UniProt P49674)
# T3 construct: purchased Eurofins Discovery (DiscoverX KINOMEscan scanMAX)
# Protocol: as §1
# EGFR(E746-A750del) = target: T4, EGFR(E746-A750del) (Homo sapiens, UniProt P00533, DEL746-750)
# T4 construct: purchased Eurofins Discovery (DiscoverX KINOMEscan scanMAX)
# T4 sequence (P00533 with tags, fused parts or gaps DEL746-750 limits assumed): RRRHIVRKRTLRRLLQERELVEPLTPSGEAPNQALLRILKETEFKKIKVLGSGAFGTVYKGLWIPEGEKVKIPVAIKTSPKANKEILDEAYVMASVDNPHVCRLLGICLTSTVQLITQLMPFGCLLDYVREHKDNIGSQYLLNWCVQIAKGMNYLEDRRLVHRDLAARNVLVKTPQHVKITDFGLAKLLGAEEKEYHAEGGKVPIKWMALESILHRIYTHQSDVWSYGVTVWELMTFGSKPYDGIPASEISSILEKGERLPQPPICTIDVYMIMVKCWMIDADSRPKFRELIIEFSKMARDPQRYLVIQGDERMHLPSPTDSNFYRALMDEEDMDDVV
# Protocol: as §1
# SRPK1 = target: T5, SRPK1 (Homo sapiens, UniProt Q96SB4)
# T5 construct: purchased Eurofins Discovery (DiscoverX KINOMEscan scanMAX)
# T5 sequence (Q96SB4 whole entry): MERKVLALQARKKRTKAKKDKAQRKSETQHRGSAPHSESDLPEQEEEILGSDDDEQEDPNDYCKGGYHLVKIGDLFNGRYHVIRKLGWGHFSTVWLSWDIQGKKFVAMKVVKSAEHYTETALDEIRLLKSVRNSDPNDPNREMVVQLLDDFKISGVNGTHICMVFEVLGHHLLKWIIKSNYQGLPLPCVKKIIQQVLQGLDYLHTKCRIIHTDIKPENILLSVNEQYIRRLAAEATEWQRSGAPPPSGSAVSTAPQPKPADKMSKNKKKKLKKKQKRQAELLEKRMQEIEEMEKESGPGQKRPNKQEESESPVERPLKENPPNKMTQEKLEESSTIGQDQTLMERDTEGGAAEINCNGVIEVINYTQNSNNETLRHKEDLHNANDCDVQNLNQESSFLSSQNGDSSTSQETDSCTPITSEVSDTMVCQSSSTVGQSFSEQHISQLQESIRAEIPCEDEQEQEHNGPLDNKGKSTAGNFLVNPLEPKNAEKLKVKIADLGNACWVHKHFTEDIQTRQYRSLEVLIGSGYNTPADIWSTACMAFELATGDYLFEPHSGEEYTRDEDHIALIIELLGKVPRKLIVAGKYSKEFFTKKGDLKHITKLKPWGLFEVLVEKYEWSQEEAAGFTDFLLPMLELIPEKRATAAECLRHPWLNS
# Protocol: as §1
# PAK4 = target: T6, PAK4 (Homo sapiens, UniProt O96013)
# T6 construct: purchased Eurofins Discovery (DiscoverX KINOMEscan scanMAX)
# Protocol: as §1
# EPHA5 = target: T7, EPHA5 (Homo sapiens, UniProt P54756)
# T7 construct: purchased Eurofins Discovery (DiscoverX KINOMEscan scanMAX)
# Protocol: as §1
# TRPM6 = target: T8, TRPM6 (Homo sapiens, UniProt Q9BX84)
# T8 construct: purchased Eurofins Discovery (DiscoverX KINOMEscan scanMAX)
# Protocol: as §1
# FLT3(R834Q) = target: T9, FLT3(R834Q) (Homo sapiens, UniProt P36888, R834Q)
# T9 construct: purchased Eurofins Discovery (DiscoverX KINOMEscan scanMAX)
# Protocol: as §1
# PCTK3 = target: T10, PCTK3 (Homo sapiens, UniProt Q07002)
# T10 construct: purchased Eurofins Discovery (DiscoverX KINOMEscan scanMAX)
# T10 sequence (Q07002 whole entry): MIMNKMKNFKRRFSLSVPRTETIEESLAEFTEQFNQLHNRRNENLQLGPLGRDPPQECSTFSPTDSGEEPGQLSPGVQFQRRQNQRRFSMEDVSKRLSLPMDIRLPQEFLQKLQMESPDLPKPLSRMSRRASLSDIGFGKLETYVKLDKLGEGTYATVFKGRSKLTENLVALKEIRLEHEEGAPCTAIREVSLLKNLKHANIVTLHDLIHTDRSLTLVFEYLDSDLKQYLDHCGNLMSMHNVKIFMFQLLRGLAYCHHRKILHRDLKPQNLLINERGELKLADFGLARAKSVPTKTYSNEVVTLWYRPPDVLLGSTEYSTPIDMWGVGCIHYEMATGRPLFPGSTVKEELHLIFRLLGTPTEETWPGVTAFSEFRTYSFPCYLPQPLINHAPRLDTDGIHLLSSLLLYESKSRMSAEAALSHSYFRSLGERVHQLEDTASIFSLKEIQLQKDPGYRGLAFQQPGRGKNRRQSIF
# Protocol: as §1
# ERBB3 = target: T11, ERBB3 (Homo sapiens, UniProt P21860)
# T11 construct: purchased Eurofins Discovery (DiscoverX KINOMEscan scanMAX)
# Protocol: as §1
# AKT1 = target: T12, AKT1 (Homo sapiens, UniProt P31749)
# T12 construct: purchased Eurofins Discovery (DiscoverX KINOMEscan scanMAX)
# Protocol: as §1
# FGFR1 = target: T13, FGFR1 (Homo sapiens, UniProt P11362)
# T13 construct: purchased Eurofins Discovery (DiscoverX KINOMEscan scanMAX)
# Protocol: as §1
# DDR2 = target: T14, DDR2 (Homo sapiens, UniProt Q16832)
# T14 construct: purchased Eurofins Discovery (DiscoverX KINOMEscan scanMAX)
# Protocol: as §1
# MAPKAPK2 = target: T15, MAPKAPK2 (Homo sapiens, UniProt P49137)
# T15 construct: purchased Eurofins Discovery (DiscoverX KINOMEscan scanMAX)
# Protocol: as §1
# MLK1 = target: T16, MLK1 (Homo sapiens, UniProt P80192)
# T16 construct: purchased Eurofins Discovery (DiscoverX KINOMEscan scanMAX)
# Protocol: as §1
# SGK = target: T17, SGK (Homo sapiens, UniProt O00141)
# T17 construct: purchased Eurofins Discovery (DiscoverX KINOMEscan scanMAX)
# Protocol: as §1
# TIE2 = target: T18, TIE2 (Homo sapiens, UniProt Q02763)
# T18 construct: purchased Eurofins Discovery (DiscoverX KINOMEscan scanMAX)
# T18 sequence (Q02763 23-1124): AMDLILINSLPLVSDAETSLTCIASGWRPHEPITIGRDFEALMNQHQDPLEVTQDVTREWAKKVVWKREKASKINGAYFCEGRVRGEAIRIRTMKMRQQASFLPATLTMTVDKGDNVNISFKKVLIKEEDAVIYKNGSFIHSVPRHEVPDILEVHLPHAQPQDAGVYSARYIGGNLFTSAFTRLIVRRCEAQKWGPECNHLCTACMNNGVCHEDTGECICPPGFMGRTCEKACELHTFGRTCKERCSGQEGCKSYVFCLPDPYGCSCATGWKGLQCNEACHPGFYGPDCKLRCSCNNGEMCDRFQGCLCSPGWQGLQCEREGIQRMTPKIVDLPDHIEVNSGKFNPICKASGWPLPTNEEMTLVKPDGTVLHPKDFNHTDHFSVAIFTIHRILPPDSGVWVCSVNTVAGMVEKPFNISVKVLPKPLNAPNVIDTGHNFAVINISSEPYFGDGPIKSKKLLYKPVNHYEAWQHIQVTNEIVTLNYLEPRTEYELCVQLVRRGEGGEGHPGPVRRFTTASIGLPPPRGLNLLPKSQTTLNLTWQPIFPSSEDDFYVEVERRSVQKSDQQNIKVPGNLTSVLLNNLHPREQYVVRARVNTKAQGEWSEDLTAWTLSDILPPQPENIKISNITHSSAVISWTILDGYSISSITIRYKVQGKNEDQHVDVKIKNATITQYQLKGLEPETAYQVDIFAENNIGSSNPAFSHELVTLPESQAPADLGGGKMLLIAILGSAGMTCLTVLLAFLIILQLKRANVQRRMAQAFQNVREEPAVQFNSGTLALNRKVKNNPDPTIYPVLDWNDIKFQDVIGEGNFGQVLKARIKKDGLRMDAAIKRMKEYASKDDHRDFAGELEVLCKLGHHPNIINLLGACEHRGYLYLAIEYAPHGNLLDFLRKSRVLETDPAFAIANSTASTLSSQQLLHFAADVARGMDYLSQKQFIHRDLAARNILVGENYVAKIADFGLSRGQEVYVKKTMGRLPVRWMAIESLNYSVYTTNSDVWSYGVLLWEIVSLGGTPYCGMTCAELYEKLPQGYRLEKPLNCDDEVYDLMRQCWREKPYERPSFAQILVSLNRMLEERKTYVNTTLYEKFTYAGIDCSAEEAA
# Protocol: as §1
# p38-alpha = target: T19, p38-alpha (Homo sapiens, UniProt Q16539)
# T19 construct: purchased Eurofins Discovery (DiscoverX KINOMEscan scanMAX)
# Protocol: as §1
# [1] = target: T20, RSK1(Kin.Dom.2-C-terminal) (Homo sapiens, UniProt Q15418)
# T20 construct: RSK1(Kin.Dom.2-C-terminal); purchased Eurofins Discovery (DiscoverX KINOMEscan scanMAX)
# Protocol: as §1
# TNK2 = target: T21, TNK2 (Homo sapiens, UniProt Q07912)
# T21 construct: purchased Eurofins Discovery (DiscoverX KINOMEscan scanMAX)
# Protocol: as §1
# PRKD3 = target: T22, PRKD3 (Homo sapiens, UniProt O94806)
# T22 construct: purchased Eurofins Discovery (DiscoverX KINOMEscan scanMAX)
# T22 sequence (O94806 whole entry): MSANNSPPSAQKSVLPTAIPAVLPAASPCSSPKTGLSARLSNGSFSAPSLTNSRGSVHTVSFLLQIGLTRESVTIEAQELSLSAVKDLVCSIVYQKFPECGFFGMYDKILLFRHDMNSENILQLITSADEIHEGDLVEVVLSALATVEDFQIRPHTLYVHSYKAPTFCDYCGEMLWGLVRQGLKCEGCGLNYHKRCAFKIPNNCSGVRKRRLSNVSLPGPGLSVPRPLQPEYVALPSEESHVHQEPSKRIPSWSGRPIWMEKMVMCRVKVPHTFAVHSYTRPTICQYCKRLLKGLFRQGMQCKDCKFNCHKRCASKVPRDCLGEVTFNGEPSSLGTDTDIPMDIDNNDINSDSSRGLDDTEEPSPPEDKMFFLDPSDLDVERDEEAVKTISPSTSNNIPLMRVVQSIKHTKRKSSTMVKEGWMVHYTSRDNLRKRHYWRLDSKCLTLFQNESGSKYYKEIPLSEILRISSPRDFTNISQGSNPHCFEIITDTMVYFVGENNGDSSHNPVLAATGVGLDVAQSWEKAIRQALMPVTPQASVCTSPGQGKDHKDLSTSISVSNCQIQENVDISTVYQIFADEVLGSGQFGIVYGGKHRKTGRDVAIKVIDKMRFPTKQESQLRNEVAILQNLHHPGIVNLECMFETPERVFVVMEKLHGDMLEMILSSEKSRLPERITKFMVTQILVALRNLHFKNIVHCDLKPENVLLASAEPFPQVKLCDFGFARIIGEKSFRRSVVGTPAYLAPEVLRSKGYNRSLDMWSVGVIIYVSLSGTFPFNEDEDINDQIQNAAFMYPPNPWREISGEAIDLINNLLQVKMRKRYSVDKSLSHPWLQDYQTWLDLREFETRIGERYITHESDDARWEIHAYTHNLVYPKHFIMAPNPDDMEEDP
# Protocol: as §1
# MAPKAPK5 = target: T23, MAPKAPK5 (Homo sapiens, UniProt Q8IW41)
# T23 construct: purchased Eurofins Discovery (DiscoverX KINOMEscan scanMAX)
# T23 sequence (Q8IW41 whole entry): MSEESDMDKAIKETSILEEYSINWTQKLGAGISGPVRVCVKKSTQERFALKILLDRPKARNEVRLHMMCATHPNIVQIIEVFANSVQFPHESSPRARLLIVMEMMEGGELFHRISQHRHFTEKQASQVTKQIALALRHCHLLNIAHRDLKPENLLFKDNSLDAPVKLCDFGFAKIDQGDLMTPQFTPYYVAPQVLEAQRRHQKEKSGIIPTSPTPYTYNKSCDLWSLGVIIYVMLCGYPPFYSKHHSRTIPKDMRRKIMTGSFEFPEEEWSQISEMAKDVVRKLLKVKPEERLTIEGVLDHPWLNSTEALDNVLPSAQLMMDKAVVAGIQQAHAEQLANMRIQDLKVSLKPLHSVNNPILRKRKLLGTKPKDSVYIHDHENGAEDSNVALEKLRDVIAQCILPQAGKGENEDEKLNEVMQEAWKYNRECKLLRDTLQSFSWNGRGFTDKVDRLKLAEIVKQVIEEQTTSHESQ
# Protocol: as §1
# ERBB4 = target: T24, ERBB4 (Homo sapiens, UniProt Q15303)
# T24 construct: purchased Eurofins Discovery (DiscoverX KINOMEscan scanMAX)
# Protocol: as §1
# NEK5 = target: T25, NEK5 (Homo sapiens, UniProt Q6P3R8)
# T25 construct: purchased Eurofins Discovery (DiscoverX KINOMEscan scanMAX)
# Protocol: as §1
# CAMK2D = target: T26, CAMK2D (Homo sapiens, UniProt Q13557)
# T26 construct: purchased Eurofins Discovery (DiscoverX KINOMEscan scanMAX)
# T26 sequence (Q13557 whole entry): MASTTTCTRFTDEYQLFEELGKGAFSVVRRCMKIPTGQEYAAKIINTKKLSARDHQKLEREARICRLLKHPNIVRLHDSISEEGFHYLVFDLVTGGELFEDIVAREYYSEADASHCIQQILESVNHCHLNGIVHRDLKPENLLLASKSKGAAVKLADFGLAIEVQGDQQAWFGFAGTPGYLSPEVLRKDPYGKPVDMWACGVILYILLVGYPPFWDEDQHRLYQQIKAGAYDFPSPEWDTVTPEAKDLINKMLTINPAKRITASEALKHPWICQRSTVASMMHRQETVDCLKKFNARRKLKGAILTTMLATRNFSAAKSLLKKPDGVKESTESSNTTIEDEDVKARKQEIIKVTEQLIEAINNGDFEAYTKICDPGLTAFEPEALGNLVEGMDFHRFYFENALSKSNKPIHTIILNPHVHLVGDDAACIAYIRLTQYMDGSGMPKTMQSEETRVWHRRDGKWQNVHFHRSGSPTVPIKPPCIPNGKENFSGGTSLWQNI
# Protocol: as §1
# [2] = target: T27, RSK3(Kin.Dom.2-C-terminal) (Homo sapiens, UniProt Q15349)
# T27 construct: RSK3(Kin.Dom.2-C-terminal); purchased Eurofins Discovery (DiscoverX KINOMEscan scanMAX)
# Protocol: as §1
# IGF1R = target: T28, IGF1R (Homo sapiens, UniProt P08069)
# T28 construct: purchased Eurofins Discovery (DiscoverX KINOMEscan scanMAX)
# Protocol: as §1
# QSK = target: T29, QSK (Homo sapiens, UniProt Q9Y2K2)
# T29 construct: purchased Eurofins Discovery (DiscoverX KINOMEscan scanMAX)
# Protocol: as §1
# MAP3K2 = target: T30, MAP3K2 (Homo sapiens, UniProt Q9Y2U5)
# T30 construct: purchased Eurofins Discovery (DiscoverX KINOMEscan scanMAX)
# T30 sequence (Q9Y2U5 whole entry): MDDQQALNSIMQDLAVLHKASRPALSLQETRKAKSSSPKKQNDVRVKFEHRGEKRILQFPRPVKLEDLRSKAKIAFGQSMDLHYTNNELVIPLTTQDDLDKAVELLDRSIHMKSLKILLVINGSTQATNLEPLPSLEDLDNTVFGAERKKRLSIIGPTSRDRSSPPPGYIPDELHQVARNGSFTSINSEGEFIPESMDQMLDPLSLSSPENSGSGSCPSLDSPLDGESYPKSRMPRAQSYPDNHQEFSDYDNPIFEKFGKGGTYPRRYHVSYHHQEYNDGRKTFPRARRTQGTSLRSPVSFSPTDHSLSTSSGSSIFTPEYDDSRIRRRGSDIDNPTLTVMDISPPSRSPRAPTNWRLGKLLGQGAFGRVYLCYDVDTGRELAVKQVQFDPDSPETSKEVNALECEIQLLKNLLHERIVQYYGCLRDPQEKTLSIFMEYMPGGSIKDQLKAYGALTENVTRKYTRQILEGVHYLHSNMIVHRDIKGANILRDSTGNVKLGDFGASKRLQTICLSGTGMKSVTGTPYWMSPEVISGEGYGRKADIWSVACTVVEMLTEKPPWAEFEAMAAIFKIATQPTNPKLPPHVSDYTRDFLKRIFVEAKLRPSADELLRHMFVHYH
# Protocol: as §1
# CDC2L2 = target: T31, CDC2L2 (Homo sapiens, UniProt Q9UQ88)
# T31 construct: purchased Eurofins Discovery (DiscoverX KINOMEscan scanMAX)
# Protocol: as §1
# FGFR3 = target: T32, FGFR3 (Homo sapiens, UniProt P22607)
# T32 construct: purchased Eurofins Discovery (DiscoverX KINOMEscan scanMAX)
# Protocol: as §1
# PIK3CG = target: T33, PIK3CG (Homo sapiens, UniProt P48736)
# T33 construct: purchased Eurofins Discovery (DiscoverX KINOMEscan scanMAX)
# Protocol: as §1
compound,measurement,setting,value
Cc1cc(Nc2ccc(F)c(CC3(C(=O)N4CCC(F)(CN5CCN(c6ccc(N7CCC(=O)NC7=O)cn6)CC5)CC4)CCN(Cc4cccc(Cl)c4F)CC3)n2)n[nH]1 [SK5527],remaining binding at 0.1 µM,NEK1; 100 nM,100%
same,remaining binding at 1 µM,NEK1; 1000 nM,86%
same,remaining binding at 0.1 µM,PKMYT1; 100 nM,81%
same,remaining binding at 1 µM,PKMYT1; 1000 nM,58%
same,remaining binding at 0.1 µM,CSNK1E; 100 nM,92%
same,remaining binding at 1 µM,CSNK1E; 1000 nM,91%
same,remaining binding at 0.1 µM,EGFR(E746-A750del); 100 nM,78%
same,remaining binding at 1 µM,EGFR(E746-A750del); 1000 nM,70%
same,remaining binding at 0.1 µM,SRPK1; 100 nM,93%
same,remaining binding at 1 µM,SRPK1; 1000 nM,100%
same,remaining binding at 0.1 µM,PAK4; 100 nM,100%
same,remaining binding at 1 µM,PAK4; 1000 nM,81%
same,remaining binding at 0.1 µM,EPHA5; 100 nM,100%
same,remaining binding at 1 µM,EPHA5; 1000 nM,93%
same,remaining binding at 0.1 µM,TRPM6; 100 nM,100%
same,remaining binding at 1 µM,TRPM6; 1000 nM,100%
same,remaining binding at 0.1 µM,FLT3(R834Q); 100 nM,86%
same,remaining binding at 1 µM,FLT3(R834Q); 1000 nM,75%
same,remaining binding at 0.1 µM,PCTK3; 100 nM,91%
same,remaining binding at 1 µM,PCTK3; 1000 nM,84%
same,remaining binding at 0.1 µM,ERBB3; 100 nM,100%
same,remaining binding at 1 µM,ERBB3; 1000 nM,100%
same,remaining binding at 0.1 µM,AKT1; 100 nM,78%
same,remaining binding at 1 µM,AKT1; 1000 nM,100%
same,remaining binding at 0.1 µM,FGFR1; 100 nM,100%
same,remaining binding at 1 µM,FGFR1; 1000 nM,92%
same,remaining binding at 0.1 µM,DDR2; 100 nM,98%
same,remaining binding at 1 µM,DDR2; 1000 nM,100%
same,remaining binding at 0.1 µM,MAPKAPK2; 100 nM,84%
same,remaining binding at 1 µM,MAPKAPK2; 1000 nM,100%
same,remaining binding at 0.1 µM,MLK1; 100 nM,94%
same,remaining binding at 1 µM,MLK1; 1000 nM,91%
same,remaining binding at 0.1 µM,SGK; 100 nM,93%
same,remaining binding at 1 µM,SGK; 1000 nM,68%
same,remaining binding at 0.1 µM,TIE2; 100 nM,100%
same,remaining binding at 1 µM,TIE2; 1000 nM,100%
same,remaining binding at 0.1 µM,p38-alpha; 100 nM,100%
same,remaining binding at 1 µM,p38-alpha; 1000 nM,100%
same,remaining binding at 0.1 µM,[1]; 100 nM,85%
same,remaining binding at 1 µM,[1]; 1000 nM,92%
same,remaining binding at 0.1 µM,TNK2; 100 nM,62%
same,remaining binding at 1 µM,TNK2; 1000 nM,25%
same,remaining binding at 0.1 µM,PRKD3; 100 nM,100%
same,remaining binding at 1 µM,PRKD3; 1000 nM,100%
same,remaining binding at 0.1 µM,MAPKAPK5; 100 nM,85%
same,remaining binding at 1 µM,MAPKAPK5; 1000 nM,74%
same,remaining binding at 0.1 µM,ERBB4; 100 nM,100%
same,remaining binding at 1 µM,ERBB4; 1000 nM,100%
same,remaining binding at 0.1 µM,NEK5; 100 nM,100%
same,remaining binding at 1 µM,NEK5; 1000 nM,100%
same,remaining binding at 0.1 µM,CAMK2D; 100 nM,95%
same,remaining binding at 1 µM,CAMK2D; 1000 nM,93%
same,remaining binding at 0.1 µM,[2]; 100 nM,88%
same,remaining binding at 1 µM,[2]; 1000 nM,92%
same,remaining binding at 0.1 µM,IGF1R; 100 nM,87%
same,remaining binding at 1 µM,IGF1R; 1000 nM,89%
same,remaining binding at 0.1 µM,QSK; 100 nM,89%
same,remaining binding at 1 µM,QSK; 1000 nM,90%
same,remaining binding at 0.1 µM,MAP3K2; 100 nM,92%
same,remaining binding at 1 µM,MAP3K2; 1000 nM,73%
same,remaining binding at 0.1 µM,CDC2L2; 100 nM,99%
same,remaining binding at 1 µM,CDC2L2; 1000 nM,98%
same,remaining binding at 0.1 µM,FGFR3; 100 nM,96%
same,remaining binding at 1 µM,FGFR3; 1000 nM,84%
same,remaining binding at 0.1 µM,PIK3CG; 100 nM,91%
same,remaining binding at 1 µM,PIK3CG; 1000 nM,94%
